Structures can show the parent of a compound that is named as a salt. Where two headings read alike, the source gives them in different places.
What was measured:
hChoKβ FL = target: T1, hChoKβ FL (Homo sapiens, UniProt Q9Y259); assay: Biochemical kinase inhibition assay (Kinase-Glo Luminescent Kinase Assay) on hChoKβ FL; conditions: ATP 5 μM, choline 20 μM, 60 minutes at rt; read-out: IC50 ChoKβ
T1 construct: hChoKβ full length (FL), corresponding to aminoacids 2-395; GST (N, cleaved yes); Prescission Protease recognition site (N, cleaved yes); made in house; host or cells: Escherichia coli BL21pLysS (DE3)
T1 sequence (Q9Y259 2-395): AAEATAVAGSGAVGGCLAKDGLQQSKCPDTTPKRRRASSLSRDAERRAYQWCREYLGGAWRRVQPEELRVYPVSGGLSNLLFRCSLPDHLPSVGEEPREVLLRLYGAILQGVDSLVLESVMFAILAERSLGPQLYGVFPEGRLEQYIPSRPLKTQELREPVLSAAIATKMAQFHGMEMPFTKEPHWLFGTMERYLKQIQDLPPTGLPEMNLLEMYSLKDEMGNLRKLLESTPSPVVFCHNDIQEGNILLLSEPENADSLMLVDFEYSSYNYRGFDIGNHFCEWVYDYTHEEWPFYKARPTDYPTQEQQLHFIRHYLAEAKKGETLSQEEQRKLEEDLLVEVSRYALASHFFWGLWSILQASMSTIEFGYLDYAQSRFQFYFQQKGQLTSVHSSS

Δ49N-hChoKα = target: T2, Δ49N-hChoKα (Homo sapiens, UniProt P35790); assay: Biochemical kinase inhibition assay (Kinase-Glo Luminescent Kinase Assay) on Δ49N-hChoKα
T2 construct: cDNA fragment 362-1534, corresponding to aminoacids 50-457; GST (N, cleaved yes); Prescission Protease recognition site (N, cleaved yes); made in house; host or cells: Escherichia coli BL21pLysS (DE3)
T2 sequence (P35790 50-457, stated change not applied): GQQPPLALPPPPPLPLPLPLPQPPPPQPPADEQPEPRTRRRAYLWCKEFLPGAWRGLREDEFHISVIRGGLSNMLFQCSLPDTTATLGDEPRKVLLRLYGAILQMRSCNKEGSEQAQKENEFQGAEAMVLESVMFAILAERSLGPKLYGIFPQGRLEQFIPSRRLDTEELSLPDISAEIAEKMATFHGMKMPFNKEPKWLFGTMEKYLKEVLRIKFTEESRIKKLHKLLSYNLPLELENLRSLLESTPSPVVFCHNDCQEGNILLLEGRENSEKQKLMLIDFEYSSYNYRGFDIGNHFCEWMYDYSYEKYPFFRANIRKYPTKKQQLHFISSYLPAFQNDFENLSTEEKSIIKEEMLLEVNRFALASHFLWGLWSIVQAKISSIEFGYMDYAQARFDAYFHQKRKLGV

[1] = ATP 5 μM, choline 5 μM, 60 minutes at rt, read-out: IC50 ChoKα

Row | Structure (SMILES) | IC50 (hChoKβ FL) | IC50 (Δ49N-hChoKα; [1]) | IC50 (Δ49N-hChoKα)
1 | COC(=O)Cc1ccc2nc(NC(=O)[C@H]3CC[C@@H](n4cnc5c(N)nc(Cl)nc54)CC3)sc2c1 [cpd 174, methyl [2-({[cis-4-(6-amino-2-chloro-9H-purin-9-yl)cyclohexyl]carbonyl}amino)-1,3-benzothiazol-6-yl]acetate] | > 10000 nM | 41 nM | 
2 | Nc1nc(Cl)nc2c1ncn2[C@H]1CC[C@@H](C(=O)Nc2nc3ccc(OC(F)F)cc3s2)CC1 [cpd 180, cis-4-(6-amino-2-chloro-9H-purin-9-yl)-N-[6-(difluoromethoxy)-1,3-benzothiazol-2-yl]cyclohexanecarboxamide] | 6800 nM | 23 nM | 
3 | Nc1nc(Cl)nc2c1ncn2[C@H]1CC[C@@H](C(=O)Nc2nc3ccc(Cl)cc3s2)CC1 [cpd 90, cis-4-(6-amino-2-chloro-9H-purin-9-yl)-N-(6-chloro-1,3-benzothiazol-2-yl)cyclohexanecarboxamide] | > 10000 nM | 28 nM | 
4 | Cc1csc(NC(=O)[C@H]2CC[C@@H](n3cnc4c(N)nccc43)CC2)n1 [cpd 204, cis-4-(4-amino-1H-imidazo[4,5-c]pyridin-1-yl)-N-(4-methyl-1,3-thiazol-2-yl)cyclohexanecarboxamide] | > 10000 nM | 1810 nM | 
5 | COc1cccc(NC(=O)[C@H]2CC[C@@H](n3cnc4c(N)nc(-c5cccc(C(=O)Nc6ccc(CN7CCN(C)CC7)cc6)c5)nc43)CC2)c1 [cpd 30, 3-(6-amino-9-{cis-4-[(3-methoxyphenyl)carbamoyl]cyclohexyl}-9H-purin-2-yl)-N-{4-[(4-methylpiperazin-1-yl)methyl]phenyl}benzamide] | > 10000 nM | 305 nM | 
6 | Cc1csc(NC(=O)[C@H]2CC[C@@H](n3cnc4c(N)nc(C(N)=O)nc43)CC2)n1 [cpd 146, 6-amino-9-{cis-4-[(4-methyl-1,3-thiazol-2-yl)carbamoyl]cyclohexyl}-9H-purine-2-carboxamide] | > 10000 nM | 73 nM | 
7 | Nc1nc(Cl)nc2c1ncn2[C@H]1CC[C@@H](C(=O)Nc2nc3c(s2)[C@H]2CC[C@@H](C3)N2)CC1 [cpd 189, cis-4-(6-amino-2-chloro-9H-purin-9-yl)-N-[(5S,8R)-5,6,7,8-tetrahydro-4H-5,8-epiminocyclohepta[d][1,3]thiazol-2-yl]cyclohexanecarboxamide hydrochloride] | > 10000 nM |  | 27 nM
8 | CN1CCc2nc(NC(=O)[C@H]3CC[C@@H](n4cnc5c(N)nc(C#C[Si](C)(C)C)nc54)CC3)sc2C1 [cpd 199, cis-4-{6-amino-2-[(trimethylsilyl)ethynyl]-9H-purin-9-yl}-N-(5-methyl-4,5,6,7-tetrahydro[1,3]thiazolo[5,4-c]pyridin-2-yl)cyclohexanecarboxamide] | > 10000 nM |  | 67 nM
9 | COc1cccc2sc(NC(=O)[C@H]3CC[C@@H](n4cnc5c(N)nc(F)nc54)CC3)nc12 [cpd 126, cis-4-(6-amino-2-fluoro-9H-purin-9-yl)-N-(4-methoxy-1,3-benzothiazol-2-yl)cyclohexanecarboxamide] | > 10000 nM | 31 nM | 
10 | Cc1cccc(NC(=O)[C@H]2CC[C@@H](n3cnc4c(N)nc(Cl)nc43)CC2)c1 [cpd 48, cis-4-(6-amino-2-chloro-9H-purin-9-yl)-N-(3-methylphenyl)cyclohexanecarboxamide] | > 10000 nM | 283 nM | 
11 | C#Cc1nc(N)c2ncn([C@H]3CC[C@@H](C(=O)Nc4nc(C)cs4)CC3)c2n1 [cpd 77, cis-4-(6-amino-2-ethynyl-9H-purin-9-yl)-N-(4-methyl-1,3-thiazol-2-yl)cyclohexanecarboxamide] | 5970 nM | 18 nM | 
12 | Cc1csc(NC(=O)[C@H]2CC[C@@H](n3cnc4c(N)nc(-c5cccc(O)c5)nc43)CC2)n1 [cpd 103, cis-4-[6-amino-2-(3-hydroxyphenyl)-9H-purin-9-yl]-N-(4-methyl-1,3-thiazol-2-yl)cyclohexanecarboxamide] | > 10000 nM | 176 nM | 
13 | Nc1nc(Cl)nc2c1ncn2[C@H]1CC[C@@H](C(=O)Nc2nc3ccc(OC(F)(F)F)cc3s2)CC1 [cpd 181, cis-4-(6-amino-2-chloro-9H-purin-9-yl)-N-[6-(trifluoromethoxy)-1,3-benzothiazol-2-yl]cyclohexanecarboxamide] | > 10000 nM | 66 nM | 
14 | COc1cccc2sc(NC(=O)[C@H]3CC[C@@H](n4cnc5c(N)nc(I)nc54)CC3)nc12 [cpd 116, cis-4-(6-amino-2-iodo-9H-purin-9-yl)-N-(4-methoxy-1,3-benzothiazol-2-yl)cyclohexanecarboxamide] | > 10000 nM | 43 nM | 
15 | COc1cccc(NC(=O)[C@H]2CC[C@@H](n3cnc4c(N)nc(-c5ccc(C(=O)Nc6ccc(CN7CCN(C)CC7)cc6)cc5)nc43)CC2)c1 [cpd 29, 4-(6-amino-9-{cis-4-[(3-methoxyphenyl)carbamoyl]cyclohexyl}-9H-purin-2-yl)-N-{4-[(4-methylpiperazin-1-yl)methyl]phenyl}benzamide] | 1880 nM | 257 nM | 
16 | Cc1csc(NC(=O)[C@H]2CC[C@@H](n3cnc4c(N)nc(-c5cccc(OCc6ccccc6)c5)nc43)CC2)n1 [cpd 100, cis-4-{6-amino-2-[3-(benzyloxy)phenyl]-9H-purin-9-yl}-N-(4-methyl-1,3-thiazol-2-yl)cyclohexanecarboxamide] | > 10000 nM | 248 nM | 
17 | C#Cc1nc(N)c2ncn([C@H]3CC[C@@H](C(=O)Nc4nc5c(OC)cccc5s4)CC3)c2n1 [cpd 119, cis-4-(6-amino-2-ethynyl-9H-purin-9-yl)-N-(4-methoxy-1,3-benzothiazol-2-yl)cyclohexanecarboxamide] | 7700 nM | 21 nM | 
18 | COc1ccc(NC(=O)[C@H]2CC[C@@H](n3cnc4c(N)nc(-c5ccncc5)nc43)CC2)cc1OC [cpd 37, cis-4-[6-amino-2-(pyridin-4-yl)-9H-purin-9-yl]-N-(3,4-dimethoxyphenyl)cyclohexanecarboxamide] | > 10000 nM | 844 nM | 
19 | Cc1csc(NC(=O)[C@H]2CC[C@H](n3cnc4c(N)nc(-c5cc[nH]n5)nc43)CC2)n1 [cpd 113, trans-4-[6-amino-2-(1H-pyrazol-3-yl)-9H-purin-9-yl]-N-(4-methyl-1,3-thiazol-2-yl)cyclohexanecarboxamide] | > 10000 nM | 613 nM | 
20 | Nc1nc(F)nc2c1ncn2[C@H]1CC[C@@H](C(=O)Nc2nc3c(s2)CC(F)(F)CC3)CC1 [cpd 191, cis-4-(6-amino-2-fluoro-9H-purin-9-yl)-N-(6,6-difluoro-4,5,6,7-tetrahydro-1,3-benzothiazol-2-yl)cyclohexanecarboxamide] | > 10000 nM | 11 nM | 
21 | COc1cccc(C(=O)N[C@H]2CC[C@@H](n3cnc4c(N)nc(Cl)nc43)CC2)c1 [cpd 144, N-[cis-4-(6-amino-2-chloro-9H-purin-9-yl)cyclohexyl]-3-methoxybenzamide] | > 10000 nM | 341 nM | 
22 | CC(C)(C)OC(=O)N1CCc2nc(NC(=O)[C@H]3CC[C@@H](n4cnc5c(N)nc(Cl)nc54)CC3)sc2C1 [cpd 169, tert-butyl 2-({[cis-4-(6-amino-2-chloro-9H-purin-9-yl)cyclohexyl]carbonyl}amino)-6,7-dihydro[1,3]thiazolo[5,4-c]pyridine-5(4H)-carboxylate] | 5550 nM | 52 nM | 
23 | Nc1nc(Cl)nc2c1ncn2[C@H]1CC[C@@H](C(=O)Nc2nccs2)CC1 [cpd 72, cis-4-(6-amino-2-chloro-9H-purin-9-yl)-N-(1,3-thiazol-2-yl)cyclohexanecarboxamide] | > 10000 nM | 61 nM | 
24 | Nc1nc(Cl)nc2c1ncn2[C@H]1CC[C@@H](C(=O)Nc2nnc(C(F)(F)F)s2)CC1 [cpd 64, cis-4-(6-amino-2-chloro-9H-purin-9-yl)-N-[5-(trifluoromethyl)-1,3,4-thiadiazol-2-yl]cyclohexanecarboxamide] | > 10000 nM | 196 nM | 
25 | Cc1csc(NC(=O)[C@H]2CC[C@@H](n3cnc4c(N)nc(-c5cc[nH]n5)nc43)CC2)n1 [cpd 112, cis-4-[6-amino-2-(1H-pyrazol-3-yl)-9H-purin-9-yl]-N-(4-methyl-1,3-thiazol-2-yl)cyclohexanecarboxamide] | > 10000 nM | 120 nM | 
26 | Nc1nc(Cl)nc2c1ncn2[C@H]1CC[C@@H](C(=O)Nc2nc3c(s2)CC(F)(F)CC3)CC1 [cpd 188, cis-4-(6-amino-2-chloro-9H-purin-9-yl)-N-(6,6-difluoro-4,5,6,7-tetrahydro-1,3-benzothiazol-2-yl)cyclohexanecarboxamide] | > 10000 nM | 9 nM | 
27 | Nc1nc2c(OC(=O)[C@H]3CC[C@@H](n4cnc5c(N)nc(F)nc54)CC3)cccc2s1 [cpd 160, 2-amino-1,3-benzothiazol-4-yl cis-4-(6-amino-2-fluoro-9H-purin-9-yl)cyclohexanecarboxylate] | > 10000 nM | 197 nM | 
28 | Cc1csc(NC(=O)[C@H]2CC[C@@H](n3cnc4c(N)nc(-c5cccc(C(=O)Nc6ccc(CN7CCC(N(C)C)CC7)cc6)c5)nc43)CC2)n1 [cpd 85, 3-(6-amino-9-{cis-4-[(4-methyl-1,3-thiazol-2-yl)carbamoyl]cyclohexyl}-9H-purin-2-yl)-N-(4-{[4-(dimethylamino)piperidin-1-yl]methyl}phenyl)benzamide bis-trifluoroacetate] | > 10000 nM | 11 nM | 
29 | CC1(C)Cc2nc(NC(=O)[C@H]3CC[C@@H](n4cnc5c(N)nc(Cl)nc54)CC3)sc2CO1 [cpd 195, cis-4-(6-amino-2-chloro-9H-purin-9-yl)-N-(6,6-dimethyl-6,7-dihydro-4H-pyrano[4,3-d][1,3]thiazol-2-yl)cyclohexanecarboxamide] | 6110 nM | 24 nM | 
